Measured values as given in BindingDB's records for doi:10.1021/jm00080a030 (Abbott Laboratories, 1992).

What follows are compounds tested against C5a anaphylatoxin chemotactic receptor 1 (Homo sapiens) (UniProt P21730) (assay: Potency as the maximal lysosomal myeloperoxidase (MPO) release in PMNL assay).
Sequence of C5a anaphylatoxin chemotactic receptor 1 (Homo sapiens) (P21730 whole entry, looked up): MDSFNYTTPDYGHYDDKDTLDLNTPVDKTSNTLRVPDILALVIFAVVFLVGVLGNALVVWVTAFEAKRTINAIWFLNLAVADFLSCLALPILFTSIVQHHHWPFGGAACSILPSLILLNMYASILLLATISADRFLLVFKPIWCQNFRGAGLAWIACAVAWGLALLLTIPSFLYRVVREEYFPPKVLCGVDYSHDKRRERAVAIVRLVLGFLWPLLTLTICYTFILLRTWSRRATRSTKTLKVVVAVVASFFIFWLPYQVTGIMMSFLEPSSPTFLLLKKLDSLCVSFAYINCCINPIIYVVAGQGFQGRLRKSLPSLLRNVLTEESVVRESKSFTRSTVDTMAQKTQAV
`CSCC[C@H](NC(=O)[C@H](CC(=O)O)NC(=O)[C@H](CCCCN)NC(=O)[C@@H](N)Cc1cccs1)C(=O)N[C@@H](CCC(N)=O)C(=O)N[C@@H](CC(C)C)C(=O)NCC(=O)N[C@@H](CCCNC(=N)N)C(=O)O` gave an EC50 of 200 µM.
Ac-FKDMQLGR-OH showed an EC50 of 35 µM.
With H-LRANISFKDMQLGR-OH the EC50 was 60 µM.
